Reference: patent publication US20240099989A1, “AGENT FOR PREVENTING OR IMPROVING PERIPHERAL NEUROPATHY” (KINKI UNIVERSITY, priority 2021, published 2024)
Entries after “also recorded” stand apart in the source; their conditions may differ.

Test system: Peripheral Neuropathy in a Mouse Caused by Oxaliplatin
Assay: Cold plate test (10° C.), peripheral neuropathy caused by oxaliplatin
Assay type: in vivo, Balb/c mice
Procedure: The preventive action of xylitol on hyperesthesia that occurs when an anticancer drug, oxaliplatin, was administered was examined. […] Xylitol was orally administered to a mouse simultaneously with the administration of oxaliplatin, and the following tests (cold plate test and von Frey test) were performed. Oxaliplatin is an anticancer drug classified as a platinum-containing drug. In all of the examples described below, a dosage (administered amount) (mg/kg) refers to the weight of the administered substance per kg body weight of the mouse.
Six to seven-week-old female Balb/c mice were used for the tests. All the mice were acclimated for seven days after arrival. Then, the mice were grouped into the following four groups: a control group, a group receiving oxaliplatin, and two groups receiving oxaliplatin and two different doses of xylitol (groups receiving oxaliplatin+xylitol). Each group consisted of nine mice.
On Day 8 of acclimation, the mice in the group receiving oxaliplatin and the groups receiving oxaliplatin+xylitol were intraperitoneally administered with oxaliplatin at a dose of 6 mg/kg. This day was designated as Day 0 of administration. Thereafter, these mice were intraperitoneally administered with oxaliplatin at a daily dose of 6 mg/kg on Day 7 and Day 14.
The mice in a first group receiving oxaliplatin and xylitol were orally administered with xylitol at a dose of 1 mg/kg daily from Day 0. The mice in a second group receiving oxaliplatin and xylitol were orally administered with xylitol at a dose of 5 mg/kg daily from Day 0.
(§1) A cold plate test was performed to examine the effect of xylitol on paresthesia that is caused by a low temperature stimulus. The mice in the four groups described in (1) of the present example (Example 1) were placed on a cold plate set at 10° C., and withdrawal response time (latent time) was measured. It is presumed that a shorter latent time reflects a greater degree of shunning the low temperature stimulus by the cold plate.
Six to seven-week-old female Balb/c mice were used for the tests as with Example 1. All the mice were acclimated for seven days after arrival. Then, the mice were grouped into the following five groups: a control group, a group receiving only oxaliplatin, and three groups receiving oxaliplatin and three different doses of xylitol. Each group consisted of seven mice.
On Day 8 of acclimation, the mice in the groups other than the control group were intraperitoneally administered with oxaliplatin at a dose of 6 mg/kg. This day was designated as the first day of the administration (Day 0). Thereafter, these mice were intraperitoneally administered with oxaliplatin at the same dose on Day 7 and Day 14 for a total of 3 doses.
The mice in a first group receiving oxaliplatin+xylitol were orally administered with xylitol at a dose of 5 mg/kg daily from Day 6 of administration. The mice in a second group receiving oxaliplatin+xylitol were orally administered with xylitol at a dose of 25 mg/kg daily from Day 6 of administration. The mice in a third group receiving oxaliplatin+xylitol were orally administered with xylitol at a dose of 100 mg/kg daily from Day 6 of administration. In this context, “Day 6 of administration” means that the number of days after administration is 6. The same applies hereinafter.
as §1, with “A” for “A cold plate”, “performed on the mice in the five groups described in (1) of the present example (Example 2)” for “performed”, “respective” for “the four”, “groups” for “groups described in (1) of the present example (Example 1)”
Six to seven-week-old female Balb/c mice were used for the tests as with Example 1. All the mice were acclimated for seven days after arrival. […]

[1] = 6 mg/kg oxaliplatin + 5 mg/kg test substance orally daily from Day 0 (prevention)
[2] = 6 mg/kg oxaliplatin + 100 mg/kg test substance orally daily from Day 6 (therapy), time course after Day 6

SMILES	withdrawal response time (latent time) [1]	withdrawal response time (latent time) [2]	withdrawal response time (latent time) (6 mg/kg oxaliplatin + 1 mg/kg test substance orally daily from Day 0 (prevention))	withdrawal response time (latent time) (6 mg/kg oxaliplatin + 5 mg/kg orally daily from Day 6, on Day 10, vs group receiving 6 mg/kg oxaliplatin)	withdrawal response time (latent time) (6 mg/kg oxaliplatin + 5 mg/kg orally daily from Day 6, on Day 14 and Day 17, vs group receiving 6 mg/kg oxaliplatin)	withdrawal response time (latent time) (6 mg/kg oxaliplatin + 5 mg/kg orally daily from Day 6, on Day 21, vs group receiving 6 mg/kg oxaliplatin)	withdrawal response time (latent time) (6 mg/kg oxaliplatin + 5 mg/kg test substance orally daily from Day 6 (therapy), time course after Day 6)	withdrawal response time (latent time) (6 mg/kg oxaliplatin + 25 mg/kg orally daily from Day 6, on Day 10, vs group receiving 6 mg/kg oxaliplatin)	withdrawal response time (latent time) (6 mg/kg oxaliplatin + 25 mg/kg test substance orally daily from Day 6 (therapy), time course after Day 6)	withdrawal response time (latent time) (6 mg/kg oxaliplatin + 100 mg/kg orally daily from Day 6, on Day 10, vs group receiving 6 mg/kg oxaliplatin)
OC[C@@H](O)[C@H](O)CO [D-threitol]	approximately similar to that of the control group	tended to become longer from Day 6 onwards; also recorded: significantly longer withdrawal response time								
OC[C@H](O)[C@H](O)[C@H](O)[C@@H](O)CO [L-talitol]	almost the same data; also recorded: approximately similar to that of the control group	tended to become longer from Day 9 onwards; also recorded: significantly longer withdrawal response time								
OC[C@@H](O)[C@H](O)[C@@H](O)CO [xylitol]	approximately similar to that of the control group		approximately similar to that of the control group	significantly longer withdrawal response time	no significant difference	significantly longer withdrawal response time	tended to become longer from Day 6 onwards; also recorded: significantly longer withdrawal response time	significantly longer withdrawal response time	tended to become longer from Day 6 onwards; also recorded: increase in the withdrawal response time; also recorded: significantly longer withdrawal response time	significantly longer withdrawal response time
